{
  "source": "DBAASP",
  "test_in_all_cases": "≥ marks a high value that may be exact or a test limit, other limits are often not marked, values filed in µg/mL are converted to µM",
  "key": {"[1]": {"system": "Staphylococcus sp. BCRC 10451"}, "[2]": {"system": "Bacillus subtilis IFO 3513"}, "[3]": {"system": "Staphylococcus aureus IFO 12732"}, "[4]": {"system": "Escherichia coli IFO 12734"}, "Pseudomonas aeruginosa": {"system": "Pseudomonas aeruginosa"}, "Bacillus subtilis": {"system": "Bacillus subtilis"}, "Escherichia coli": {"system": "Escherichia coli"}, "[5]": {"system": "Staphylococcus aureus ATCC 25923"}, "Enterobacter cloacae": {"system": "Enterobacter cloacae"}, "[6]": {"system": "Candida albicans ATCC 90028"}, "Staphylococcus aureus": {"system": "Staphylococcus aureus"}, "[7]": {"system": "Salmonella enterica subsp. enterica serovar Typhi"}, "[8]": {"system": "Pseudomonas aeruginosa ATCC 27853"}, "[9]": {"system": "Escherichia coli ATCC 25922"}, "[10]": {"system": "Staphylococcus aureus RN4220"}, "Escherichia coli ML-35p": {"system": "Escherichia coli ML-35p"}, "[11]": {"system": "Malassezia sympodialis ATCC 42132"}},
  "data": [
    {"smiles": "CC[C@H](C)[C@H](NC(=O)[C@H](CCCCN)NC(=O)[C@@H]1CCCN1C(C)=O)C(=O)N[C@H](C(=O)N[C@@H](CO)C(=O)N[C@@H](CO)C(=O)N1CCC[C@H]1C(=O)N[C@@H](CC(C)C)C(=O)N[C@@H](Cc1ccccc1)C(=O)N[C@@H](CCCCN)C(=O)N[C@H](C(=O)N[C@@H](CC(C)C)C(=O)N[C@@H](CC(C)C)C(=O)N[C@@H](CO)C(=O)N[C@@H](C)C(=O)N[C@H](C(=O)NCC(=O)N[C@@H](CO)C(=O)N[C@@H](C)C(=O)N[C@@H](CC(C)C)C(=O)N[C@@H](CO)C(=O)N[C@@H](CO)C(=O)N[C@@H](CO)C(=O)NCC(=O)NCC(=O)N[C@@H](CCC(N)=O)C(=O)N[C@@H](CCC(=O)O)C(N)=O)C(C)C)[C@@H](C)O)[C@@H](C)CC", "note": "[PKIISSPLFKTLLSAVGSALSSSGGQE]", "values": [
      {"measurement": "MIC", "setting": "[1]", "result": "≥ 37.4", "unit": "µM"}
    ]},
    {"smiles": "CC[C@H](C)[C@H](N)C(=O)N[C@@H](CC(C)C)C(=O)N1CCC[C@H]1C(=O)N[C@@H](CCCCN)C(=O)N[C@@H](CCCCN)C(=O)N[C@@H](CCCCN)C(=O)N1CCC[C@H]1C(=O)N[C@@H](Cc1c[nH]c2ccccc12)C(=O)N[C@@H](Cc1c[nH]c2ccccc12)C(=O)N1CCC[C@H]1C(=O)N[C@@H](Cc1c[nH]c2ccccc12)C(=O)N[C@@H](CCCN=C(N)N)C(=O)N[C@@H](CCCN=C(N)N)C(N)=O", "note": "[ILPKKKPWWPWRR]", "values": [
      {"measurement": "MIC", "setting": "[2]", "result": 3.49, "unit": "µM"},
      {"measurement": "MIC", "setting": "[3]", "result": 3.49, "unit": "µM"},
      {"measurement": "MIC", "setting": "[4]", "result": "≥ 55.8", "unit": "µM"}
    ]},
    {"smiles": "CC(C)C[C@H](NC(=O)[C@H](CCCCN)NC(=O)[C@H](CCCN=C(N)N)NC(=O)[C@H](Cc1ccccc1)NC(=O)[C@H](Cc1ccccc1)NC(=O)[C@H](CCCCN)NC(=O)[C@H](CCCCN)NC(=O)[C@H](Cc1ccccc1)NC(=O)[C@H](CCCN=C(N)N)NC(=O)[C@H](CCCCN)NC(=O)[C@@H](N)C(C)C)C(=O)N[C@@H](CCCCN)C(=O)N[C@@H](CCCCN)C(=O)N[C@@H](CO)C(N)=O", "note": "[VKRFKKFFRKLKKS]", "values": [
      {"measurement": "MIC", "setting": "Pseudomonas aeruginosa", "result": 17.4, "unit": "µM"},
      {"measurement": "MIC", "setting": "Bacillus subtilis", "result": "≥ 34.8", "unit": "µM"},
      {"measurement": "MIC", "setting": "Escherichia coli", "result": 17.4, "unit": "µM"},
      {"measurement": "MIC", "setting": "[5]", "result": 2.17, "unit": "µM"},
      {"measurement": "MIC", "setting": "Enterobacter cloacae", "result": "≥ 139", "unit": "µM"},
      {"measurement": "MIC", "setting": "[6]", "result": "≥ 69.6", "unit": "µM"},
      {"measurement": "MIC", "setting": "Staphylococcus aureus", "result": 69.6, "unit": "µM"},
      {"measurement": "MIC", "setting": "[7]", "result": 17.4, "unit": "µM"},
      {"measurement": "MIC", "setting": "[8]", "result": 69.6, "unit": "µM"},
      {"measurement": "MIC", "setting": "[9]", "result": 69.6, "unit": "µM"}
    ]},
    {"smiles": "CC[C@H](C)[C@H](N)C(=O)N[C@@H](CC(C)C)C(=O)N1CCC[C@H]1C(=O)N[C@@H](Cc1c[nH]c2ccccc12)C(=O)N[C@@H](CCCCN)C(=O)N[C@@H](CCCCN)C(=O)N1CCC[C@H]1C(=O)N[C@@H](CCCCN)C(=O)N[C@@H](CC(C)C)C(=O)N1CCC[C@H]1C(=O)N[C@@H](Cc1c[nH]c2ccccc12)C(=O)N[C@@H](CCCN=C(N)N)C(=O)N[C@@H](CCCN=C(N)N)C(N)=O", "note": "[ILPWKKPKLPWRR]", "values": [
      {"measurement": "MIC", "setting": "[2]", "result": 0.908, "unit": "µM"},
      {"measurement": "MIC", "setting": "[3]", "result": 1.82, "unit": "µM"},
      {"measurement": "MIC", "setting": "[4]", "result": 7.28, "unit": "µM"}
    ]},
    {"smiles": "NC(=O)[C@H](CCCN=C(N)N)NC(=O)[C@H](CCCN=C(N)N)NC(=O)[C@H](CCCN=C(N)N)NC(=O)[C@H](CCCN=C(N)N)NC(=O)[C@H](CCCN=C(N)N)NC(=O)[C@H](CCCN=C(N)N)NC(=O)[C@H](CCCN=C(N)N)NC(=O)[C@H](CCCN=C(N)N)NC(=O)[C@@H](N)CCCN=C(N)N", "note": "[RRRRRRRRR]", "values": [
      {"measurement": "MIC", "setting": "[10]", "result": "≥ 100", "unit": "µM"},
      {"measurement": "MIC", "setting": "Escherichia coli ML-35p", "result": "≥ 100", "unit": "µM"},
      {"measurement": "MIC", "setting": "[11]", "result": 9.83, "unit": "µM"}
    ]}
  ]
}
